Data on three molecules can be found in ChEMBL document CHEMBL4673282, “Identification of a New Heterocyclic Scaffold for Inhibitors of the Polo-Box Domain of Polo-like Kinase 1” (J Med Chem, 2020).

For series [1], the target named is T1, Muscarinic acetylcholine receptor M5 (Homo sapiens, UniProt P08912).
T1 sequence (P08912 whole entry): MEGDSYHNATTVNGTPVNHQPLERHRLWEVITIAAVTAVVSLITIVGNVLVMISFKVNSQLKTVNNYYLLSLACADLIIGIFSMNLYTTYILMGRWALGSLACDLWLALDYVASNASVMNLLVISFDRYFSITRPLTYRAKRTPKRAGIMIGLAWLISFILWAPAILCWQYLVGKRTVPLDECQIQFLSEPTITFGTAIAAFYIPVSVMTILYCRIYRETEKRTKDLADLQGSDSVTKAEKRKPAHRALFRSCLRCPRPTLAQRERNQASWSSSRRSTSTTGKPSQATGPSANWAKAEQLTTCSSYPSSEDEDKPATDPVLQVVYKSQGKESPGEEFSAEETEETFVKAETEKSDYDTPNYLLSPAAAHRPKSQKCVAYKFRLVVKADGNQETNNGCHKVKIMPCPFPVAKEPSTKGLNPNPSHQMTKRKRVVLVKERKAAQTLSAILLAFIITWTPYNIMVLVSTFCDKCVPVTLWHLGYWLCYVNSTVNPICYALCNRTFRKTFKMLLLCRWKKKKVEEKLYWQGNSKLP
Put plainly: Inhibition of M5 (unknown origin) at 10 uM relative to control.

The target of series [2] is T2, Muscarinic acetylcholine receptor M4 (Homo sapiens, UniProt P08173).
T2 sequence (P08173 whole entry): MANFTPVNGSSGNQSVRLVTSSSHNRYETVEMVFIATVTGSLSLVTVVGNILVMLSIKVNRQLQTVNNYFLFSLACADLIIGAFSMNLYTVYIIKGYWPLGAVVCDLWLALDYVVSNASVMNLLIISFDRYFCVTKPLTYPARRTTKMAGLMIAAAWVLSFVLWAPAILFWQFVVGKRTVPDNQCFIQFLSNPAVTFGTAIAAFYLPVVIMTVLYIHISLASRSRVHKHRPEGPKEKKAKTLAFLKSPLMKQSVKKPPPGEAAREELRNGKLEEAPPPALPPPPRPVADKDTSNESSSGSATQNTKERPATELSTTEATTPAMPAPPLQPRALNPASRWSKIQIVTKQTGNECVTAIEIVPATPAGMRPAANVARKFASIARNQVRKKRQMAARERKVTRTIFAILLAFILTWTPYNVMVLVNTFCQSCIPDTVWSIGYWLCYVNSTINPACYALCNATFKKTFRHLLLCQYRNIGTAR
Put plainly: Inhibition of M4 (unknown origin) at 10 uM relative to control.

Series [3] has as its target Muscarinic acetylcholine receptor M3 (Homo sapiens, UniProt P20309). Nature of the series: Inhibition of M3 (unknown origin) at 10 uM relative to control.
The nature of series [4]: Aqueous solubility of compound. The format is physicochemical. Conditions: buffer.
Series [5] in a line: Half life in rat liver microsomes at 1 uM measured up to 60 mins in presence of NADPH generating system. Conditions: 1 h.
A short description of the next series: in vitro. Conditions: PAMPA.
A short description of series [6]: Drug metabolism in C57BL/6 mouse assessed as demethylation in serum at 20 mg/kg, ip measured after 15 to 240 mins by UPLC-ESI-QTOFMS analysis. In kind it is ADME, organism-based. To be noted: in vivo, time 15-240 min.
A short description of series [7]: Drug metabolism in C57BL/6 mouse assessed as hydroxylation in serum at 20 mg/kg, ip measured after 15 mins by UPLC-ESI-QTOFMS analysis. The format is ADME, organism-based. To be noted: in vivo.
A short description of series [8]: Toxicity in C57BL/6 mouse at 20 mg/kg, ip. In kind it is organism-based. To be noted: in vivo.
Series [9] can be described thus: Half life in mouse cytosol. The format is ADME, subcellular.
Series [10] in a line: Half life in rat cytosol. The format is ADME, subcellular.
A short description of series [11]: Half life in human cytosol. The format is ADME, subcellular.
For series [12], the system named is HeLa. Nature of the series: Induction of mitotic arrest in human HeLa cells assessed as abnormal spindle morphology at 100 uM measured after 12 hrs by DAPI staining based immunoassay. The format is functional, cell-based.
Series [13] concerns the target T3, Serine/threonine-protein kinase PLK1 (Homo sapiens, UniProt P53350). Nature of the series: Inhibition of Plk1 PBD in human HeLa cells assessed as reduction in plk1 localization to kinetochores at 100 uM measured after 12 hrs by immunostaining based assay. The format is cell-based.
For series [14], the target named is T3, Serine/threonine-protein kinase PLK1. Put plainly: Inhibition of Plk1 PBD in human HeLa cells assessed as reduction in plk1 localization to centrosomes at 100 uM measured after 12 hrs by immunostaining based assay. In kind it is cell-based.
For series [15], the system named is HeLa. Nature of the series: Antiproliferative activity against human HeLa cells assessed as reduction in cell population at 100 uM measured after 3 days by DAPI staining based phase contrast microscopic analysis relative to control. In kind it is functional. Also on record: scale not given: the % may be the effect or the level left. To be noted: time 3 day.
The test system of series [16] is HeLa. Nature of the series: Induction of mitotic arrest in human HeLa cells assessed as apperance of aberrant chromosomal morphology at 100 uM measured after 12 hrs by DAPI staining based phase contrast microscopic analysis. In kind it is functional, cell-based.
Series [17] has as its system HeLa. Put plainly: Induction of mitotic arrest in human HeLa cells assessed as rounded cells with apoptosis at 100 uM measured after 12 hrs by DAPI staining based phase contrast microscopic analysis. The format is functional, cell-based.
Series [18] addresses T3, Serine/threonine-protein kinase PLK1. Nature of the series: Inhibition of biotin-Ahx-CETFDPPLHSpTAI-NH2 binding to recombinant human full-length HA-EGFP-tagged Plk1 PBD expressed in HEK293A cells preincubated for 30 mins followed by biotin-Ahx-CETFDPPLHSpTAI-NH2 addition and measured after 1 hr by 3,3',5,5'-tetramethylbenzidine substrate based ELISA. In kind it is cell-based, HEK293-A.

The conditions of series [19]: PAMPA.
Description: Permeability of the compound by PAMPA

Each structure is given as a SMILES string. Values after ≈ are worked out from the molar mass of the structure shown. Active and inactive are the calls of the source. The rule behind the calls is not given here. Where only a bound is given, the exact number is not on record here.

T3 sequence (P53350 whole entry): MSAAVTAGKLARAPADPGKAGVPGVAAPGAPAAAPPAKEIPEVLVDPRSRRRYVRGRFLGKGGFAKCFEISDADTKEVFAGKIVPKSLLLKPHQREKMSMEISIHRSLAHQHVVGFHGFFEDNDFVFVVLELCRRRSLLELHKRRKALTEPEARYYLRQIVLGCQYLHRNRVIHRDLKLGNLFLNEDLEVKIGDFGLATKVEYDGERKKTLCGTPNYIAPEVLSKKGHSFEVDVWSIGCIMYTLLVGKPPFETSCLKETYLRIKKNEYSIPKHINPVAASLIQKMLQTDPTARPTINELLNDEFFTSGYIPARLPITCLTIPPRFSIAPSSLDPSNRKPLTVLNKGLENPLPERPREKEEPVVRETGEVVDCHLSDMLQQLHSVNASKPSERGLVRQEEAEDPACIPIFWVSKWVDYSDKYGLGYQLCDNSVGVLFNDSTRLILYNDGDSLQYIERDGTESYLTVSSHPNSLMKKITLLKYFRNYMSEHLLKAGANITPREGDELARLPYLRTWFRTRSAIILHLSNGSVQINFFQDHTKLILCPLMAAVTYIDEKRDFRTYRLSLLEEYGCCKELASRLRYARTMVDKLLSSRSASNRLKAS
Muscarinic acetylcholine receptor M3, sequence (P20309 whole entry): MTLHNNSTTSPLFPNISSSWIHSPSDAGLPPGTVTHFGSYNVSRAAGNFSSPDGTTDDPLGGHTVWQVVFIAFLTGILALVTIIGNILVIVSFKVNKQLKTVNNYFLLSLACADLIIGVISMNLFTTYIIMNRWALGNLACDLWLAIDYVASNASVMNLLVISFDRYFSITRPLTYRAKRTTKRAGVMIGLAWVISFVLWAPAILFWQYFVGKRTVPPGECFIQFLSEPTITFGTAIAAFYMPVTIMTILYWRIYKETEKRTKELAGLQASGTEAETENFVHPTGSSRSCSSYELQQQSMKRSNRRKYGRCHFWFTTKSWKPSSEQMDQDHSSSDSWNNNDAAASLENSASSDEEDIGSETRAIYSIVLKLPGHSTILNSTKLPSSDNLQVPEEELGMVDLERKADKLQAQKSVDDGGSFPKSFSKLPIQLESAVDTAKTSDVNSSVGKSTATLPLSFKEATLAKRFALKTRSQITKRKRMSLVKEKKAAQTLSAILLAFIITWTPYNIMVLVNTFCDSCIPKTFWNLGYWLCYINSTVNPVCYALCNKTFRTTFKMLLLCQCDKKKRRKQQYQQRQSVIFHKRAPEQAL
Description for in vitro: Permeability of the compound by PAMPA

As to `NCCCn1c(=O)c2cc(F)ccc2n2c(=S)[nH]nc12`, the values for the inhibition at 10 µM in series [1], in series [2] and in [3] were 84%, 73% and 100%, respectively. For the same molecule, in series [4], the solubility is 27 µg/mL (≈ 92 µM). In series [5], the t1/2 is listed as above 30 min. Also, the Papp in “in vitro” was 16.8 ×10⁻⁶ cm/s.

With `CCCn1c(=O)c2ccccc2n2c(SC)nnc12`, the Drug metabolism entry in series [6] and in series [7] was “Metabolite_Detected” throughout. In addition, the results for the Activity entry (in series [8]; in the series on HeLa [15]) were “Non-Toxic” and 50%, respectively. The t1/2 entry in series [9], in series [10] and in series [11] was “<= 120 min” each time. Further, the result in the series with HeLa [12], in the series with HeLa [16] and with HeLa [17] was Active. The inhibition in series [13] was 50%; in series [14], 20%. Besides, in series [18], the IC50 was above 50 µM.

In turn, `C[C@H]1C[C@@H]1n1c(=O)c2cc(F)ccc2n2c(=S)[nH]nc12` (relative stereo) had a solubility in [4] of 13.2 µg/mL (≈ 45.5 µM). The t1/2 in series [5] was above 30 min. Also, in [19], the permeability was 188 10^-6 cm/s.
